Assay results: patent US20250090562A1, “METHODS, COMPOSITIONS AND USES RELATED TO THE TREATMENT AND PREVENTION OF LEIGH’S SYNDROME” (Stealth BioTherapeutics Inc., priority 2023, published 2025)
Entries after “also recorded” stand apart in the source; their conditions may differ.

Experiments:
[1] = system: Healthy (GM08402) fibroblasts; assay: RSL3 cytoprotection assay, healthy fibroblasts; format: cell-based, human; settings: for relative anti-ferroptosis properties (comparison between test articles): 1 μM RSL3, 10-1000 nM compound, 4 h
Method: (§1) Patient fibroblasts were acquired from Coriell Institute for Medical Research (Camden, NJ, USA). GM03672 is an untransformed fibroblast cell line from a Leigh syndrome patient carrying an unknown mutation. GM08402 is an untransformed fibroblast from an apparently healthy individual. Cells were cultured at 37° C. at 5% CO2 in Eagle's Minimum Essential Medium (MEM, Corning), which was supplemented with Earle's salts and non-essential amino acids, 15% qualified fetal bovine serum, and 1% penicillin/streptomycin ([…]) to yield “Complete MEM.”
(§2) To initiate the RSL3 cytoprotection experiment, Healthy (GM08402) and Leigh syndrome (GM03672) fibroblasts were resuspended in Complete MEM. Cells were seeded at 10,000 cells per well in a clear, tissue cultured-treated, 96-well plate and incubated at 37° C. overnight. Following the incubation, supernatant was manually aspirated, taking care not to disrupt cells. […]. Luminescence units were quantified by GEN5 software on a BioTek SYNERGY neo2 plate reader (LUM filter).
(§3) RSL3 is an inhibitor of the enzyme glutathione peroxidase 4 (GPX4), which decreases lipid peroxides. RSL3 inhibition of GPX4 induces ferroptosis through iron-dependent accumulation of lipid ROS. In this assay, Healthy or Leigh fibroblasts were treated for 4 hours with RSL3 to induce ferroptosis or left untreated. Endogenous ATP levels were measured as an indicator of cellular viability using a commercially available kit (CellTiter-Glo® 2.0 Cell Viability Assay (Promega)).
(§4) […]. […] Briefly, ferroptosis was induced with 1 μM RSL3 in healthy fibroblast cells and 375 nM RSL3 in fibroblasts from a patient with Leigh syndrome.
(§5) A preliminary experiment was performed to determine the effect of RSL3 injury on the fibroblasts of a healthy individual (cell line: GM08402) and the fibroblasts of a patient diagnosed with Leigh syndrome (cell line: GM03672).

[2] = system: Leigh syndrome (GM03672) fibroblasts; assay: RSL3 cytoprotection assay, Leigh fibroblasts; format: cell-based, human; settings: for relative anti-ferroptosis properties (comparison between test articles): 375 nM RSL3, 10-1000 nM compound, 4 h
Method: as §1, §2, §3, §4, §5

15-lipoxygenase (15-LO) = assay: 15(S)-HETE ELISA following RSL3 treatment, Leigh fibroblasts; format: cell-based, human; settings: 700 nM RSL3, 1 μM compound, 24 h
Method: Samples for the 15(S)-HETE ELISA were generated by the RSL3 cytoprotection assay described above. Healthy or Leigh fibroblasts were resuspended in assay medium, seeded at 200,000 cells per well in a clear, tissue culture-treated, 24-well plate. Cells were incubated at 37° C. for 24 hours. Supernatant was aspirated from each well following the incubation.
Fibroblasts from both a healthy individual and a patient diagnosed with Leigh syndrome were examined (but not all compounds were examined in each cell type). Activation of ferroptosis has been implicated as a driver of epilepsy, which is commonly associated with Leigh syndrome. […] Kahn-Kirby et al. PLOS One. […] As a key regulator of ferroptosis, 15-LO serves as a rational therapeutic target in Leigh syndrome.

[3] = system: rotenone-inhibited Complex I; assay: Complex I-bypass assay ((CI)-bypass assay), high-resolution respirometry O2 consumption; format: cell-based, human; settings: Leigh (GM03672) fibroblasts, 0.5 μM rotenone; for Complex I by-pass activity (restoration of oxygen consumption rate): titrations 125 nM to 8 μM
Method: All high-resolution respirometry experiments were conducted using the Oroboros O2k-Fluorespirometer (Oroboros, Innsbruck, Austria). The Oroboros O2k-Fluorespirometer was calibrated daily using the air calibration protocol on DatLab 7.4 (Oroboros, Innsbruck, Austria). Prior to each experiment requiring the fluorescence module, the AmpR calibration protocol from DatLab 7.4 was used to calibrate the fluorescence signal. Initial data analysis, including setting of marks, was performed using DatLab 7.4.
Complex I-bypass activity was assessed using HRR to measure O2 consumption. Briefly, Leigh (GM03672) fibroblasts were harvested with trypsin, pelleted at 300×g centrifugation, and resuspended in prewarmed, complete MEM. Cells were added to each chamber via buffer replacement at a concentration of 1-2 million per mL. The chambers were closed to initiate measurement of O2 consumption. The slope negative signal, which is a derivative of O2 consumption, was allowed to stabilize over the course of several minutes. Using a Hamilton syringe to allow for continuous measurement of O2 consumption, glutamate (10 mM final concentration) and malate (0.1 mM final concentration) were added to the closed chamber through the central capillary of the stopper. The slope negative signal was stabilized for several minutes, and rotenone was added at a final concentration of 0.5 μM. One of Compounds 1 to 4 or Vatiquinone was added at increasing concentrations, allowing for several minutes of stabilization of the slope negative signal between titrations. Marks were set at signal plateaus in between titrations. Values were exported and analyzed using GraphPad Prism 9. […] Responsiveness of cells was confirmed with idebenone.
Statistical analysis was performed using GraphPad Prism 9. Complex I-bypass data were fit using nonlinear sigmoidal 4P fit. RET Assay data were analyzed by 2-way ANOVA using a p-value of 0.05.
The Complex 1-bypass assay ((CI)-bypass Assay) evaluates the capacity of compounds to donate electrons into the electron transport chain (ETC) when Complex I is impaired or otherwise deficient. Normally, electrons feed into the ETC through Complex I. In instances where Complex I is impaired, electrons must enter the ETC downstream of Complex I for oxidative phosphorylation (OXPHOS) to occur. Complex I is composed of 46 subunits, encoded by mitochondrial and nuclear genes. Due to its large size, Complex I mutations are a common cause of ETC dysfunction in mitochondrial diseases. Indeed, mutations in the genes that encode subunits for Complex I are important causes of Leigh and Leigh-like syndrome.
Using this assay, the ability of Compounds 1 to 4 and Vatiquinone to bypass rotenone-inhibited Complex I was determined. Rotenone is a widely used Complex I inhibitor and blocks the transfer of electrons from the iron-sulfur complexes on Complex I to ubiquinone. Thus, when rotenone is introduced to cells underdoing routine respiration, a decrease in oxygen consumption is observed, which is indicative of disrupted OXPHOS. The ability of Compounds 1 to 4 and Vatiquinone to “bypass” Complex I and restore OXPHOS is measured by an increase in oxygen consumption rate following addition of the compound to the chamber.
In executing this assay, in each instance, fibroblasts are added to each chamber of the Oroboros Oxygraph-2K (the “O2k”). The O2k generates two traces: 1) total oxygen consumption over time, 2) the rate of oxygen consumption over time (slope negative). Baseline respiration is established for several minutes by allowing the slope negative to stabilize. Rotenone is introduced to each chamber at a final concentration of 0.5 μM. The addition of rotenone is expected to cause a marked reduction of OXPHOS as measured by a decreased rate of oxygen consumption. Then the test article (i.e., in this case one of Compounds 1 to 4 or Vatiquinone) is added to the chamber. […]

[4] = system: Leigh (GM03672) fibroblasts; assay: Erastin cytoprotection assay, Leigh fibroblasts; format: cell-based, human; settings: 2 μM erastin, 250 μM FAC, 50 μM AA, 10-1000 nM compound, 24 h
Method: (§6) Briefly, Healthy (GM08402) or Leigh (GM03672) fibroblasts were resuspended in assay medium, seeded at 10,000 cells per well in a clear, tissue cultured-treated, 96-well plate, and incubated at 37° C. overnight. Following the incubation, supernatant was manually aspirated from wells, taking care not to disrupt cells. Fibroblasts were co-treated in a final volume of 100 μL with 2 μM erastin (Millipore Corp., Cat #), 250 μM ferric ammonium citrate (FAC), 50 μM ascorbic acid (AA), and a titration of one of each of Compounds 1 to 4 or Vatiquinone ranging from 10 to 1000 nM. Following another 24-hour incubation at 37° C., cell viability was measured using the CellTiter-Glo Luminescent Cell Viability Kit (ProMega) per Manufacturer's instructions. Luminescence units were quantified by GEN5 software on a BioTek SYNERGY neo2 plate reader (LUM filter).
(§7) Briefly, erastin, like RSL3, is known to induce ferroptosis. […] Erastin was incubated with cell fibroblasts for 24 hours to induce ferroptosis. Cells were co-treated with each of Compounds 1 to 4, or Vatiquinone as the test articles. Test articles were administered at a range of concentrations to derive a curve. Cell viability was determined using a commercially available kit that measures ATP production. […] An increase in cell viability as determined by the assay is considered to be protective against ferroptosis.

[5] = system: Healthy (GM08402) fibroblasts; assay: Erastin cytoprotection assay, healthy fibroblasts; format: cell-based, human; settings: 2 μM erastin, 250 μM FAC, 50 μM AA, 10-1000 nM compound, 24 h
Method: as §6, §7

[6] = system: Leigh fibroblasts (GM03672); assay: Mitochondrial membrane potential (TMRM flow cytometry) in RSL3-treated Leigh fibroblasts; format: cell-based, human; settings: 1 μM RSL3 alone, 4 h
Method: Leigh fibroblasts (GM03672) were seeded in a 24-well, tissue culture-treated plate in complete MEM (MEM+15% FBS+1% penicillin/streptomycin) at a density of 1×10^5 cells per 500 μL and incubated overnight at 37° C. at 5% CO2. Cells were treated for 4 hours at 37° C. with either 1 μM RSL3, 1 μM RSL3 with 1 μM Compound 3 or media for untreated cells. Following the incubation, supernatant was removed and cells were treated with 0.25% trypsin for 5 min at 37° C. Trypsin was neutralized with an equal part MEM. Cells were dislodged with gentle pipetting and pelleted at 300×g for 5 minutes. Pellets were resuspended in 500 μL Fluobrite DMEM and cells were transferred to a 96-well, v-bottom plate. Cells were stained with 20 nM MitoTracker Green and 100 nM tetramethylrhodamine methyl ester (TMRM) Samples were incubated for 25 minutes at 37° C. Each well was mixed immediately prior to analysis to resuspend settled cells. Fluorescence intensity was measured on the BD Accuri C6 Plus Flow Cytometer. A minimum of 10,000 events per sample was collected. Data analysis was performed using FloJo vs. 10. Gating was performed by establishing an initial forward scatter vs. side scatter gate. MitoTracker Green positive, TMRM positive cells were identified through subsequent gating. Median fluorescence intensity (MFI) of TMRM fluorescence was determined. Using GraphPad Prism 10, statistical significance between groups was determined by One-way ANOVA. A p-value of less than 0.05 was considered significant. Results are presented graphically in FIG. 20.

[7] = patients with pontocerebellar hypoplasia type 6; cited from earlier work

Row | Structure (SMILES) | relative anti-ferroptosis properties (comparison between test articles) [1] | relative anti-ferroptosis properties (comparison between test articles) [2] | relative 15-LO inhibition (comparison between test articles) (15-lipoxygenase (15-LO)) | EC50 ([3]; oxygen consumption rate, read-out: EC50 value, Complex I by-pass activity) | Complex I by-pass activity (restoration of oxygen consumption rate) [3] | relative protective effect against erastin induced ferroptosis (cell viability, ATP) [4] | relative protective effect against erastin induced ferroptosis (cell viability, ATP) [5] | RSL3 concentration sufficient for 25-30% killing of cells ([1]; healthy fibroblasts GM08402, 4 h) | RSL3 concentration sufficient for 25-30% killing of cells ([2]; Leigh fibroblasts GM03672, 4 h) | mitochondrial membrane potential (TMRM MFI) [6] | effect on seizures [7]
1 | COC1=C(OC)C(=O)C(CCCCCCCCCC(F)(F)F)=C(C)C1=O [Compound 1] | roughly equivalent in their anti-ferroptosis properties | roughly equivalent in their anti-ferroptosis properties | superior to Compounds 2, 3 and 4 | ~13.7 µM | restored oxygen consumption rate in a dose-dependent manner | about equally protective | about equally protective |  |  |  | 
2 | COC(=O)c1ccc([C@H]2c3[nH]c4ccccc4c3C[C@H](C(=O)OC)N2C(=O)CCl)cc1 [RSL3, (1S,3R)-Methyl 2-(2-chloroacetyl)-2,3,4,9-tetrahydro-1-[4-(methoxycarbonyl)phenyl]-1H-pyrido[3,4-b]indole-3-carboxylate, reference compound] |  |  |  |  |  |  |  | 1 µM | 700 nM | significant reduction in mitochondrial membrane potential | 
3 | CC(C)=CCC/C(C)=C/CC/C(C)=C/CC[C@@](C)(O)CCC1=C(C)C(=O)C(C)=C(C)C1=O [Vatiquinone, reference compound] | roughly equivalent in their anti-ferroptosis properties | roughly equivalent in their anti-ferroptosis properties |  |  | no CI-bypass activity; also recorded: inactive | superior in its protective effect as compared with Compounds 1 and 4 | about equally protective |  |  |  | reduce the incidence of seizures; also recorded: decrease seizure frequency and morbidity
